From the NIST ThermoML archive (doi:10.1016/j.jct.2011.11.021)
± gives the expanded uncertainty stated by the source.

Assay: activity coefficient (dimensionless); of the first substance listed, at infinite dilution; xn = mol fraction of the nth substance listed
Settings: Liquid, Chromatography, x1 = 0

| Structure (SMILES) | activity coefficient (318.15 K) | activity coefficient (328.15 K) | activity coefficient (338.15 K) | activity coefficient (348.15 K) | activity coefficient (358.15 K) | activity coefficient (368.15 K) |
| --- | --- | --- | --- | --- | --- | --- |
| CCCCCCCCCC [decane] + COCC[N+]1(C)CCOCC1.O=S(=O)([N-]S(=O)(=O)C(F)(F)F)C(F)(F)F | 192 ± 13 | 165 ± 11 | 145 ± 10 | 126 ± 9 | 111 ± 8 | 98.2 ± 6.7 |
| CCOCC [diethyl ether] + COCC[N+]1(C)CCOCC1.O=S(=O)([N-]S(=O)(=O)C(F)(F)F)C(F)(F)F | 3.49 ± 0.24 | 3.46 ± 0.24 | 3.44 ± 0.23 | 3.41 ± 0.23 | 3.39 ± 0.23 | 3.37 ± 0.23 |
| CC(C)OC(C)C [diisopropyl ether] + COCC[N+]1(C)CCOCC1.O=S(=O)([N-]S(=O)(=O)C(F)(F)F)C(F)(F)F | 10.1 ± 0.7 | 9.8 ± 0.67 | 9.55 ± 0.65 | 9.26 ± 0.63 | 8.98 ± 0.61 | 8.75 ± 0.6 |
| CCCOCCC [dipropyl ether] + COCC[N+]1(C)CCOCC1.O=S(=O)([N-]S(=O)(=O)C(F)(F)F)C(F)(F)F | 10.7 ± 0.7 | 10.3 ± 0.7 | 9.92 ± 0.68 | 9.56 ± 0.65 | 9.2 ± 0.63 | 8.97 ± 0.61 |
| CCO [ethanol] + COCC[N+]1(C)CCOCC1.O=S(=O)([N-]S(=O)(=O)C(F)(F)F)C(F)(F)F | 1.77 ± 0.12 | 1.61 ± 0.11 | 1.49 ± 0.1 | 1.36 ± 0.09 | 1.26 ± 0.08 | 1.17 ± 0.07 |
| CCOC(C)=O [ethyl acetate] + COCC[N+]1(C)CCOCC1.O=S(=O)([N-]S(=O)(=O)C(F)(F)F)C(F)(F)F | 0.984 ± 0.062 | 1 ± 0.06 | 1.02 ± 0.06 | 1.03 ± 0.06 | 1.04 ± 0.07 | 1.06 ± 0.07 |
| CCc1ccccc1 [ethylbenzene] + COCC[N+]1(C)CCOCC1.O=S(=O)([N-]S(=O)(=O)C(F)(F)F)C(F)(F)F | 3.27 ± 0.22 | 3.21 ± 0.22 | 3.16 ± 0.22 | 3.1 ± 0.21 | 3.04 ± 0.21 | 2.99 ± 0.2 |
| CCCCCCC [heptane] + COCC[N+]1(C)CCOCC1.O=S(=O)([N-]S(=O)(=O)C(F)(F)F)C(F)(F)F | 54.4 ± 3.7 | 48.7 ± 3.3 | 43.8 ± 3 | 39.7 ± 2.7 | 36.2 ± 2.5 | 33.1 ± 2.3 |
| C=CCCCC [hex-1-ene] + COCC[N+]1(C)CCOCC1.O=S(=O)([N-]S(=O)(=O)C(F)(F)F)C(F)(F)F | 16.5 ± 1.1 | 15.3 ± 1 | 14.3 ± 1 | 13.6 ± 0.9 | 12.9 ± 0.9 | 12.1 ± 0.8 |
| CCCCCC [hexane] + COCC[N+]1(C)CCOCC1.O=S(=O)([N-]S(=O)(=O)C(F)(F)F)C(F)(F)F | 36.1 ± 2.5 | 32.6 ± 2.2 | 29.8 ± 2 | 27.2 ± 1.9 | 25 ± 1.7 | 23.1 ± 1.6 |
| CO [methanol] + COCC[N+]1(C)CCOCC1.O=S(=O)([N-]S(=O)(=O)C(F)(F)F)C(F)(F)F | 1.28 ± 0.08 | 1.18 ± 0.08 | 1.1 ± 0.07 | 1.02 ± 0.06 | 0.95 ± 0.06 | 0.897 ± 0.057 |
| CCCC(=O)OC [methyl butanoate] + COCC[N+]1(C)CCOCC1.O=S(=O)([N-]S(=O)(=O)C(F)(F)F)C(F)(F)F | 1.42 ± 0.09 | 1.44 ± 0.09 | 1.45 ± 0.1 | 1.45 ± 0.1 | 1.46 ± 0.1 | 1.48 ± 0.1 |
| COC(C)=O [methyl ethanoate] + COCC[N+]1(C)CCOCC1.O=S(=O)([N-]S(=O)(=O)C(F)(F)F)C(F)(F)F | 0.684 ± 0.046 | 0.7 ± 0.047 | 0.714 ± 0.048 | 0.729 ± 0.048 | 0.74 ± 0.049 | 0.754 ± 0.05 |
| CCC(=O)OC [methyl propanoate] + COCC[N+]1(C)CCOCC1.O=S(=O)([N-]S(=O)(=O)C(F)(F)F)C(F)(F)F | 0.949 ± 0.06 | 0.966 ± 0.061 | 0.982 ± 0.062 | 0.998 ± 0.062 | 1.01 ± 0.06 | 1.03 ± 0.06 |
| CC1CCCCC1 [methylcyclohexane] + COCC[N+]1(C)CCOCC1.O=S(=O)([N-]S(=O)(=O)C(F)(F)F)C(F)(F)F | 27.6 ± 1.9 | 24.8 ± 1.7 | 22.8 ± 1.6 | 20.9 ± 1.4 | 19.2 ± 1.3 | 17.7 ± 1.2 |
| CCCCCCCCC [nonane] + COCC[N+]1(C)CCOCC1.O=S(=O)([N-]S(=O)(=O)C(F)(F)F)C(F)(F)F | 125 ± 9 | 108 ± 7 | 95.8 ± 6.6 | 85.6 ± 5.9 | 76.3 ± 5.2 | 68.7 ± 4.7 |
| C=CCCCCCC [oct-1-ene] + COCC[N+]1(C)CCOCC1.O=S(=O)([N-]S(=O)(=O)C(F)(F)F)C(F)(F)F | 38.6 ± 2.6 | 34.9 ± 2.4 | 32.5 ± 2.2 | 30.1 ± 2.1 | 27.5 ± 1.9 | 25.9 ± 1.8 |
| CCCCCCCC [octane] + COCC[N+]1(C)CCOCC1.O=S(=O)([N-]S(=O)(=O)C(F)(F)F)C(F)(F)F | 82.1 ± 5.6 | 71.6 ± 4.9 | 64.6 ± 4.4 | 58.4 ± 4 | 51.7 ± 3.5 | 47.3 ± 3.2 |
| CCCC(C)=O [pentan-2-one] + COCC[N+]1(C)CCOCC1.O=S(=O)([N-]S(=O)(=O)C(F)(F)F)C(F)(F)F | 0.88 ± 0.056 | 0.89 ± 0.057 | 0.9 ± 0.057 | 0.91 ± 0.058 | 0.918 ± 0.058 | 0.925 ± 0.058 |
| CCC(=O)CC [pentan-3-one] + COCC[N+]1(C)CCOCC1.O=S(=O)([N-]S(=O)(=O)C(F)(F)F)C(F)(F)F | 0.895 ± 0.057 | 0.912 ± 0.058 | 0.927 ± 0.059 | 0.941 ± 0.059 | 0.952 ± 0.06 | 0.967 ± 0.061 |
| CCCCC [pentane] + COCC[N+]1(C)CCOCC1.O=S(=O)([N-]S(=O)(=O)C(F)(F)F)C(F)(F)F | 25 ± 1.7 | 22.5 ± 1.5 | 20.6 ± 1.4 | 19 ± 1.3 | 17.4 ± 1.2 | 16.3 ± 1.1 |
| CCCO [propan-1-ol] + COCC[N+]1(C)CCOCC1.O=S(=O)([N-]S(=O)(=O)C(F)(F)F)C(F)(F)F | 2.39 ± 0.16 | 2.14 ± 0.15 | 1.96 ± 0.13 | 1.79 ± 0.12 | 1.63 ± 0.11 | 1.52 ± 0.1 |
| CC(C)O [propan-2-ol] + COCC[N+]1(C)CCOCC1.O=S(=O)([N-]S(=O)(=O)C(F)(F)F)C(F)(F)F | 2.17 ± 0.15 | 1.95 ± 0.13 | 1.79 ± 0.12 | 1.63 ± 0.11 | 1.5 ± 0.1 | 1.4 ± 0.09 |
| c1ccncc1 [pyridine] + COCC[N+]1(C)CCOCC1.O=S(=O)([N-]S(=O)(=O)C(F)(F)F)C(F)(F)F | 0.64 ± 0.044 | 0.644 ± 0.044 | 0.648 ± 0.044 | 0.651 ± 0.045 | 0.654 ± 0.045 | 0.658 ± 0.045 |
| C=Cc1ccccc1 [styrene] + COCC[N+]1(C)CCOCC1.O=S(=O)([N-]S(=O)(=O)C(F)(F)F)C(F)(F)F | 1.77 ± 0.12 | 1.77 ± 0.12 | 1.76 ± 0.12 | 1.76 ± 0.12 | 1.76 ± 0.12 | 1.76 ± 0.12 |
| C1CCOC1 [tetrahydrofuran] + COCC[N+]1(C)CCOCC1.O=S(=O)([N-]S(=O)(=O)C(F)(F)F)C(F)(F)F | 0.858 ± 0.055 | 0.867 ± 0.055 | 0.873 ± 0.056 | 0.882 ± 0.056 | 0.888 ± 0.057 | 0.895 ± 0.057 |
| c1ccsc1 [thiophene] + COCC[N+]1(C)CCOCC1.O=S(=O)([N-]S(=O)(=O)C(F)(F)F)C(F)(F)F | 1.09 ± 0.07 | 1.08 ± 0.07 | 1.08 ± 0.07 | 1.08 ± 0.07 | 1.08 ± 0.07 | 1.08 ± 0.07 |
| Cc1ccccc1 [toluene] + COCC[N+]1(C)CCOCC1.O=S(=O)([N-]S(=O)(=O)C(F)(F)F)C(F)(F)F | 2.01 ± 0.14 | 2.01 ± 0.14 | 2 ± 0.14 | 1.99 ± 0.14 | 1.98 ± 0.13 | 1.97 ± 0.13 |
| O [water] + COCC[N+]1(C)CCOCC1.O=S(=O)([N-]S(=O)(=O)C(F)(F)F)C(F)(F)F | 2.49 ± 0.17 | 2.17 ± 0.15 | 1.94 ± 0.13 | 1.73 ± 0.12 | 1.55 ± 0.1 | 1.41 ± 0.09 |
